Reference: patent US9051280B2, “Tetraline and indane derivatives, pharmaceutical compositions containing them, and their use in therapy” (AbbVie Deutschland GmbH & Co. KG, priority 2010, dated 2015)

Molecular target: human GlyT1c transporter (Homo sapiens (Human), UniProt P48067)
Assay: Radioligand binding assay using recombinant CHO cell membranes expressing human GlyT1
Conditions: read-out: radioligand binding Kiapp
Method: Biological Testing • 1. [^3H]-Glycine uptake into recombinant CHO cells expressing human GlyT1: Human GlyT1c expressing recombinant hGlyT1c—5_CHO cells were plated at 20,000 cells per well in 96 well Cytostar-T scintillation microplates (Amersham Biosciences) and cultured to sub-confluency for 24 h. For glycine uptake assays the culture medium was aspirated and the cells were washed once with 100 μl HBSS (Gibco BRL, #14025-050) with 5 mM L-Alanine (Merck #1007). 80 μl HBSS buffer were added, followed by 10 μl inhibitor or vehicle (10% DMSO) and 10 μl [^3H]-glycine (TRK71, Amersham Biosciences) to a final concentration of 200 nM for initiation of glycine uptake. The plates were placed in a Wallac Microbeta (PerkinElmer) and continuously counted by solid phase scintillation spectrometry during up to 3 hours. Nonspecific uptake was determined in the presence of 10 μM Org24598. IC50 calculations were made by four-parametric logistic nonlinear regression analysis (GraphPad Prism) using determinations within the range of linear increase of [^3H]-glycine incorporation between 60 and 120 min. • 2. Radioligand binding assays using recombinant CHO cell membranes expressing human GlyT1:
Radioligand binding to human GlyT1c transporter-expressing membranes was determined as described in Mezler et al., Molecular Pharmacology 74:1705-1715, 2008.

Sequence of human GlyT1c transporter (P48067 whole entry): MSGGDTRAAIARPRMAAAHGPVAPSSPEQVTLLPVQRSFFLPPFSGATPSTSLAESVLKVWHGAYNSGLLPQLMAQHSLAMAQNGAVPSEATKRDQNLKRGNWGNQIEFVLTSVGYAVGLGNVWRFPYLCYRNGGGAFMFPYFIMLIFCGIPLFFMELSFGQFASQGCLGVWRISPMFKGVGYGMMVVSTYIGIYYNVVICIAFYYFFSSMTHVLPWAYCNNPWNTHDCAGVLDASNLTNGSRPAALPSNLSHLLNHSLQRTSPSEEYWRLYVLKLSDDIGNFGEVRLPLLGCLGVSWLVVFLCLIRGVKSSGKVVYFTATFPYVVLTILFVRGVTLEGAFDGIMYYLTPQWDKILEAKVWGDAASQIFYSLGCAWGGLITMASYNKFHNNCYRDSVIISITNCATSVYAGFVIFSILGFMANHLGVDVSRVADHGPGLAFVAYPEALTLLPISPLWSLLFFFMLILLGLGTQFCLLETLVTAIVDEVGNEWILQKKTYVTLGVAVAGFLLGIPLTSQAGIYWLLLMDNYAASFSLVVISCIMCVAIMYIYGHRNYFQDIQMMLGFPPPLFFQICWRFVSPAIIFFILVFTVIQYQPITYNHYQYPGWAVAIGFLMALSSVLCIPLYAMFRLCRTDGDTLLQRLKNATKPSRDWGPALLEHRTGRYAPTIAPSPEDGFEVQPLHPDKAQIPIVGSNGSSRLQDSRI

Ki [nM] | SMILES
≤ 100 | CCS(=O)(=O)NCCOc1ccc2c(c1)[C@H](Cc1ccccc1)[C@H](CN)CC2 (stereo in doubt) [Example 195, Ethanesulfonic acid [2-(7-aminomethyl-8-benzyl-5,6,7,8-tetrahydro-naphthalen-2-yloxy)-ethyl]-amide]
≤ 100 | NC[C@@H]1CCc2ccc(OCCNS(=O)(=O)CC3CC3)cc2[C@@H]1Cc1ccccc1 (stereo in doubt) [Example 196, N-[2-(7-Aminomethyl-8-benzyl-5,6,7,8-tetrahydro-naphthalen-2-yloxy)-ethyl]-C-cyclopropyl-methanesulfonamide]
≤ 100 | CCS(=O)(=O)NCCOc1ccc2c(c1)[C@H](Cc1ccccc1)[C@H](CNC)CC2 (stereo in doubt) [Example 198, Ethanesulfonic acid [2-(8-benzyl-7-methylaminomethyl-5,6,7,8-tetrahydro-naphthalen-2-yloxy)-ethyl]-amide]
≤ 100 | CNC[C@@H]1CCc2ccc(OCCNS(=O)(=O)CC3CC3)cc2[C@@H]1Cc1ccccc1 (stereo in doubt) [Example 199, N-[2-(8-Benzyl-7-methylaminomethyl-5,6,7,8-tetrahydro-naphthalen-2-yloxy)-ethyl]-C-cyclopropyl-methanesulfonamide]
≤ 500 | CCS(=O)(=O)NCCOc1ccc2c(c1)[C@H](Cc1ccccc1)[C@H](CN1CCC1)CC2 (stereo in doubt) [Example 200, Ethanesulfonic acid [2-(7-azetidin-1-ylmethyl-8-benzyl-5,6,7,8-tetrahydro-naphthalen-2-yloxy)-ethyl]-amide]
≤ 100 | O=S(=O)(CC1CC1)NCCOc1ccc2c(c1)[C@H](Cc1ccccc1)[C@H](CN1CCC1)CC2 (stereo in doubt) [Example 201, N-[2-(7-Azetidin-1-ylmethyl-8-benzyl-5,6,7,8-tetrahydro-naphthalen-2-yloxy)-ethyl]-C-cyclopropyl-methanesulfonamide]
≤ 100 | Cn1cnc(S(=O)(=O)NCCOc2ccc3c(c2)[C@H](Cc2ccccc2)[C@H](CN2CCC2)CC3)c1 (stereo in doubt) [Example 202, 1-Methyl-1H-imidazole-4-sulfonic acid [2-(7-azetidin-1-ylmethyl-8-benzyl-5,6,7,8-tetrahydro-naphthalen-2-yloxy)-ethyl]-amide]
≤ 100 | Cn1cnc(S(=O)(=O)NCc2ccc3c(c2)[C@H](Cc2ccccc2)[C@H](CN2CCC2)CC3)c1 (stereo in doubt) [Example 203, 1-Methyl-1H-imidazole-4-sulfonic acid (7-azetidin-1-ylmethyl-8-benzyl-5,6,7,8-tetrahydro-naphthalen-2-ylmethyl)-amide]
